One assay deals with T1, hCRHR1 (Homo sapiens, UniProt P34998).
T1 sequence (P34998 24-415): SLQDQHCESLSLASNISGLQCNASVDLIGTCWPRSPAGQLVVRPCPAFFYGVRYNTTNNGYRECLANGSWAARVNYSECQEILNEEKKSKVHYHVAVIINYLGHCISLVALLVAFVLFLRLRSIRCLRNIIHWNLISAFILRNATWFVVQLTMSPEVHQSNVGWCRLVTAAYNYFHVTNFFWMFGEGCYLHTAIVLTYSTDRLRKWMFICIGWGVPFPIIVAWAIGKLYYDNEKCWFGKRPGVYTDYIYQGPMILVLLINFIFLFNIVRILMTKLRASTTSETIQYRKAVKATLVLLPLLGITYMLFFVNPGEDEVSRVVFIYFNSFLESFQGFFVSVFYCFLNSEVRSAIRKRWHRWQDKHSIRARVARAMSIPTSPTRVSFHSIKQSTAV
The assay is described as follows: HTRF cAMP assay, determination of hCRHR1 potency (peptide libraries 5 conc., purified peptides 11 conc.). Type of assay: cell-based. In short, it runs like this:
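Cellular cAMP was read by time-resolved FRET between d2-labelled cAMP and cryptate anti-cAMP antibody. The cells were freshly thawed suspension CHO-K1 cells stably expressing human CRHR1.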

Another assay addresses T2, hCRHR2 (Homo sapiens, UniProt Q13324).
T2 sequence (Q13324 1-411): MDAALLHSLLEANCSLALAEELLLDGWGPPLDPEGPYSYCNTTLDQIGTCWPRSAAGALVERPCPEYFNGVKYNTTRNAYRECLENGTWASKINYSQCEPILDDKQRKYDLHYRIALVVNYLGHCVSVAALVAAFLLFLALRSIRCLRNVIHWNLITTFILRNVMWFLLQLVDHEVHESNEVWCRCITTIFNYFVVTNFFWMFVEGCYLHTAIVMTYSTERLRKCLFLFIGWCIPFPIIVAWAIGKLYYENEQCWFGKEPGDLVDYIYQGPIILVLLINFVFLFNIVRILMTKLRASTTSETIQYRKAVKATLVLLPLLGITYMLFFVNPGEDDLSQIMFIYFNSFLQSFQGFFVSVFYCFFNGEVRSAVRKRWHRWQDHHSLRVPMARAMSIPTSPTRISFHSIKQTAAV
The assay is described as follows: HTRF cAMP assay, determination of hCRHR2 potency (peptide libraries 5 conc., purified peptides 11 conc.). Type of assay: cell-based. In short, it runs like this:
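Cells: CHO-K1/hCRHR2 stable clone, suspension, freshly thawed. Readout: competitive TR-FRET, anti-cAMP cryptate vs cAMP-d2. Analysis: sigmoid variable-slope nonlinear regression → EC50.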
A general note: In TR-FRET formats the signal depends on donor and acceptor labels being close together.

The mark [1] stands for this setting: library peptides, matched molecular pairs L vs Nle in position X^38, read-out: Potency hCRHR1 pEC50 (converted).
Where [2] appears, read: library peptides, matched molecular pairs L vs Nle in position X^38, read-out: Potency hCRHR2 pEC50 (converted).
[3] abbreviates: Table 3, matched molecular pairs X^38 L vs Nle, peptide library of Example 4, read-out: hCRHR1 pEC50 (converted).
Setting [4] is: Table 3, matched molecular pairs X^38 L vs Nle, peptide library of Example 4, read-out: hCRHR2 pEC50 (converted).

The structures appear in SMILES notation. Like-named read-outs stand apart in the source and are kept apart here. Starred links: 1 amine or outer side, 2 acyl side, 3 side chain; linkers in the order of their positions; H or OH if unused. Non-standard residues stand in square brackets, D forms with d. Residues, ends and D or L forms follow the SMILES beside them. Groups on a side chain read outwards from the residue. *: point of attachment. C20 diacid = O=C(O)CCCCCCCCCCCCCCCCCCC(=O)*; γGlu = O=C(O)[C@H](CCC(=O)[*:2])N[*:1]; Hyp = O=C(O)[C@@H]1C[C@@H](O)CN1; Nle = CCCC[C@H](N)C(=O)O; AEEA = NCCOCCOCC(=O)O A value given as a limit tells only on which side of the number the result lay.

In the case of `CCCC[C@H](NC(=O)[C@@H](NC(=O)[C@H](CCC(=O)O)NC(=O)[C@H](C)NC(=O)[C@H](CC(N)=O)NC(=O)[C@@H](NC(=O)[C@H](CCCCNC(=O)COCCOCCNC(=O)COCCOCCNC(=O)CC[C@H](NC(=O)CC[C@H](NC(=O)CCCCCCCCCCCCCCCCCCC(=O)O)C(=O)O)C(=O)O)NC(=O)[C@H](C)NC(=O)[C@H](CCC(N)=O)NC(=O)[C@H](CCC(=O)O)NC(=O)[C@H](CCCNC(=N)N)NC(=O)[C@H](C)NC(=O)[C@@H](NC(=O)[C@H](CCCNC(=N)N)NC(=O)[C@H](C)NC(=O)[C@H](CCCNC(=N)N)NC(=O)[C@H](C)NC(=O)[C@H](CCC(N)=O)NC(=O)[C@H](CCC(=O)O)NC(=O)[C@H](CC(C)C)NC(=O)[C@H](CC(C)C)NC(=O)[C@@H](NC(=O)[C@H](CCC(N)=O)NC(=O)[C@H](CC(C)C)NC(=O)[C@H](CC(C)C)NC(=O)CNC(=O)[C@@H](NC(=O)[C@@H]1C[C@@H](O)CN1C(=O)[C@@H](NC(=O)[C@H](CC(=O)O)NC(=O)[C@H](CC(C)C)NC(=O)[C@H](CO)NC(=O)[C@H](CC(C)C)NC(=O)[C@@H](NC(=O)[C@@H](N)[C@@H](C)CC)C(C)C)C(C)C)[C@@H](C)CC)[C@@H](C)CC)C(C)C)[C@@H](C)O)[C@@H](C)CC)C(=O)N[C@@H](C)C(=O)N[C@@H](CCC(=O)O)C(=O)N[C@H](C(N)=O)C(C)C` [compound 85] (H-IVLSLDV[Hyp]IGLLQILLEQARARVAREQAK([AEEA-AEEA-γGlu-γGlu-C20 diacid])TNAEI[Nle]AEV-NH2), the EC50 at hCRHR1 (setting [1]) was 2 nM; at hCRHR2 (setting [2]), 0.251 nM.
With `CC[C@H](C)[C@H](N)C(=O)N[C@H](C(=O)N[C@@H](CC(C)C)C(=O)N[C@@H](CO)C(=O)N[C@@H](CC(C)C)C(=O)N[C@@H](CC(=O)O)C(=O)N[C@H](C(=O)N1CCC[C@H]1C(=O)N[C@H](C(=O)NCC(=O)N[C@@H](CC(C)C)C(=O)N[C@@H](CCCCNC(=O)COCCOCCNC(=O)COCCOCCNC(=O)CC[C@H](NC(=O)CC[C@H](NC(=O)CCCCCCCCCCCCCCCCCCC(=O)O)C(=O)O)C(=O)O)C(=O)N[C@@H](CCC(N)=O)C(=O)N[C@H](C(=O)N[C@@H](CC(C)C)C(=O)N[C@@H](CC(C)C)C(=O)N[C@@H](CCC(=O)O)C(=O)N[C@@H](CCC(N)=O)C(=O)N[C@@H](C)C(=O)N[C@@H](CCCNC(=N)N)C(=O)N[C@@H](C)C(=O)N[C@@H](CCCNC(=N)N)C(=O)N[C@@H](C)C(=O)N[C@@H](C)C(=O)N[C@@H](CCCNC(=N)N)C(=O)N[C@@H](CCC(=O)O)C(=O)N[C@@H](CCC(N)=O)C(=O)N[C@@H](C)C(=O)N[C@H](C(=O)N[C@H](C(=O)N[C@@H](CC(N)=O)C(=O)N[C@@H](C)C(=O)N[C@@H](CCC(=O)O)C(=O)N[C@H](C(=O)N[C@@H](CC(C)C)C(=O)N[C@@H](C)C(=O)N[C@@H](CCC(=O)O)C(=O)N[C@H](C(N)=O)C(C)C)[C@@H](C)CC)[C@@H](C)O)[C@@H](C)O)[C@@H](C)CC)[C@@H](C)CC)C(C)C)C(C)C` [SEQ ID NO: 261] (H-IVLSLDVPIGLK([AEEA-AEEA-γGlu-γGlu-C20 diacid])QILLEQARARAAREQATTNAEILAEV-NH2), the EC50 on hCRHR1 (purified peptides, CHO-K1 cells stably expressing hCRHR1, cAMP HTRF, read-out: hCRHR1 EC50) was > 5000 nM; at hCRHR2 (purified peptides, CHO-K1 cells stably expressing hCRHR2, cAMP HTRF, read-out: hCRHR2 EC50) it was 24 nM. For the same compound, the “Selectivity ratio (hCRHR1/ hCRHR2)” value at hCRHR2 (hCRHR1-EC50/hCRHR2-EC50) is recorded as >208.
As to `CC[C@H](C)[C@H](N)C(=O)N[C@H](C(=O)N[C@@H](CC(C)C)C(=O)N[C@@H](CO)C(=O)N[C@@H](CC(C)C)C(=O)N[C@@H](CC(=O)O)C(=O)N[C@H](C(=O)N1CCC[C@H]1C(=O)N[C@H](C(=O)NCC(=O)N[C@@H](CC(C)C)C(=O)N[C@@H](CC(C)C)C(=O)N[C@@H](CCC(N)=O)C(=O)N[C@H](C(=O)N[C@@H](CC(C)C)C(=O)N[C@@H](CC(C)C)C(=O)N[C@@H](CCC(=O)O)C(=O)N[C@@H](CCC(N)=O)C(=O)N[C@@H](C)C(=O)N[C@@H](CCCNC(=N)N)C(=O)N[C@@H](C)C(=O)N[C@@H](CCC(N)=O)C(=O)N[C@@H](C)C(=O)N[C@@H](C)C(=O)N[C@@H](CCCNC(=N)N)C(=O)N[C@@H](CCC(=O)O)C(=O)N[C@@H](CCC(N)=O)C(=O)N[C@@H](C)C(=O)N[C@@H](CCCCNC(=O)COCCOCCNC(=O)COCCOCCNC(=O)CC[C@H](NC(=O)CC[C@H](NC(=O)CCCCCCCCCCCCCCCCCCC(=O)O)C(=O)O)C(=O)O)C(=O)N[C@H](C(=O)N[C@@H](CC(N)=O)C(=O)N[C@@H](C)C(=O)N[C@@H](CCC(=O)O)C(=O)N[C@H](C(=O)N[C@@H](CC(C)C)C(=O)N[C@@H](C)C(=O)N[C@@H](CCC(=O)O)C(=O)N[C@H](C(N)=O)[C@@H](C)CC)[C@@H](C)CC)[C@@H](C)O)[C@@H](C)CC)[C@@H](C)CC)C(C)C)C(C)C` [SEQ ID NO: 43] (H-IVLSLDVPIGLLQILLEQARAQAAREQAK([AEEA-AEEA-γGlu-γGlu-C20 diacid])TNAEILAEI-NH2), the figures for the EC50 on hCRHR1 (setting [3]) and on hCRHR2 (setting [4]) were 63100 nM and 0.501 nM, respectively.
On to `CC[C@H](C)[C@H](N)C(=O)N[C@H](C(=O)N[C@@H](CC(C)C)C(=O)N[C@@H](CO)C(=O)N[C@@H](CC(C)C)C(=O)N[C@@H](CC(=O)O)C(=O)N[C@H](C(=O)N1CCC[C@H]1C(=O)N[C@H](C(=O)NCC(=O)N[C@@H](CC(C)C)C(=O)N[C@@H](CC(C)C)C(=O)N[C@@H](CCC(N)=O)C(=O)N[C@H](C(=O)N[C@@H](CC(C)C)C(=O)N[C@@H](CC(C)C)C(=O)N[C@@H](CCC(=O)O)C(=O)N[C@@H](CCC(N)=O)C(=O)N[C@@H](C)C(=O)N[C@@H](CCCNC(=N)N)C(=O)N[C@@H](C)C(=O)N[C@@H](CCCNC(=N)N)C(=O)N[C@@H](CO)C(=O)N[C@@H](C)C(=O)N[C@@H](CCCNC(=N)N)C(=O)N[C@@H](CCC(=O)O)C(=O)N[C@@H](CCC(N)=O)C(=O)N[C@@H](C)C(=O)N[C@@H](CCCCNC(=O)COCCOCCNC(=O)COCCOCCNC(=O)CC[C@H](NC(=O)CC[C@H](NC(=O)CCCCCCCCCCCCCCCCCCC(=O)O)C(=O)O)C(=O)O)C(=O)N[C@H](C(=O)N[C@@H](CC(N)=O)C(=O)N[C@@H](C)C(=O)N[C@@H](CCC(=O)O)C(=O)N[C@H](C(=O)N[C@@H](CC(C)C)C(=O)N[C@@H](C)C(=O)N[C@@H](CCC(=O)O)C(=O)N[C@H](C(N)=O)C(C)C)[C@@H](C)CC)[C@@H](C)O)[C@@H](C)CC)[C@@H](C)CC)C(C)C)C(C)C` [compound 60] (H-IVLSLDVPIGLLQILLEQARARSAREQAK([AEEA-AEEA-γGlu-γGlu-C20 diacid])TNAEILAEV-NH2), for which the EC50 is 25100 nM at hCRHR1 (setting [1]) and 0.501 nM at hCRHR2 (setting [2]).
In the case of `CC[C@H](C)[C@H](N)C(=O)N[C@H](C(=O)N[C@@H](CC(C)C)C(=O)N[C@@H](CO)C(=O)N[C@@H](CC(C)C)C(=O)N[C@@H](CC(=O)O)C(=O)N[C@H](C(=O)N1CCC[C@H]1C(=O)N[C@H](C(=O)NCC(=O)N[C@@H](CC(C)C)C(=O)N[C@@H](CC(C)C)C(=O)N[C@@H](CCC(N)=O)C(=O)N[C@H](C(=O)N[C@@H](CC(C)C)C(=O)N[C@@H](CC(C)C)C(=O)N[C@@H](CCC(=O)O)C(=O)N[C@@H](CCC(N)=O)C(=O)N[C@@H](C)C(=O)N[C@@H](CCCNC(=N)N)C(=O)N[C@@H](C)C(=O)N[C@@H](CCCNC(=N)N)C(=O)N[C@@H](C)C(=O)N[C@@H](CC(C)C)C(=O)N[C@@H](CCCNC(=N)N)C(=O)N[C@@H](CCC(N)=O)C(=O)N[C@@H](CCC(=O)O)C(=O)N[C@@H](C)C(=O)N[C@@H](CCCCNC(=O)COCCOCCNC(=O)COCCOCCNC(=O)CC[C@H](NC(=O)CC[C@H](NC(=O)CCCCCCCCCCCCCCCCCCC(=O)O)C(=O)O)C(=O)O)C(=O)N[C@H](C(=O)N[C@@H](CC(N)=O)C(=O)N[C@@H](C)C(=O)N[C@@H](CCC(=O)O)C(=O)N[C@H](C(=O)N[C@@H](CC(C)C)C(=O)N[C@@H](C)C(=O)N[C@@H](CCC(=O)O)C(=O)N[C@H](C(N)=O)C(C)C)[C@@H](C)CC)[C@@H](C)O)[C@@H](C)CC)[C@@H](C)CC)C(C)C)C(C)C` [SEQ ID NO: 37] (H-IVLSLDVPIGLLQILLEQARARALRQEAK([AEEA-AEEA-γGlu-γGlu-C20 diacid])TNAEILAEV-NH2), the figures for the EC50 at hCRHR1 (setting [3]) and at hCRHR2 (setting [4]) were 158000 nM and 3.16 nM, respectively.

The values above are taken from patent EP4810052A2, “HCRHR2 SELECTIVE POLYPEPTIDES” (Gubra A/S, priority 2023, dated 2026).
